Test results published in publication PMC11864979, “First-in-class ultralong-target-residence-time p38α inhibitors as a mitosis-targeted therapy for colorectal cancer” (Nature Cancer, 2025).
Like-named read-outs stand apart in the source and are kept apart here.

Key:
Assay in all cases: selectivity profiling in a panel of 340 wild-type kinases (Reaction Biology Europe)
Assay type in all cases: binding
[1] = molecular target: T1, 340 wild-type kinases (Homo sapiens, UniProt P37023)
T1 construct: purchased Reaction Biology Europe
T1 sequence (P37023 22-503): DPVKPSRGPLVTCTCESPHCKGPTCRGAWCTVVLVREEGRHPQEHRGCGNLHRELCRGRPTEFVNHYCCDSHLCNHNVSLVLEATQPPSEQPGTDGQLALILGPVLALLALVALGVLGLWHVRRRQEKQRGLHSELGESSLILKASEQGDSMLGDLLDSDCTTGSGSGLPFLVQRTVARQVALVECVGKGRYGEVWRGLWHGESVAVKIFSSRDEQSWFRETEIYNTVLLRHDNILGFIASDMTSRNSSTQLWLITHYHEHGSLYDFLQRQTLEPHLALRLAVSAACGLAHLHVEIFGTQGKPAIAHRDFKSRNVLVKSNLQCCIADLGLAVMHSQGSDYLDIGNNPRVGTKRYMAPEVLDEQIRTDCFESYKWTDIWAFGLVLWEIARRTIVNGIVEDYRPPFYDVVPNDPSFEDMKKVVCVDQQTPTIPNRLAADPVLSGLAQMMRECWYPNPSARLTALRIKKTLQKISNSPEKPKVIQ

[2] = molecular target: T2, 340 wild-type kinases (Homo sapiens, UniProt Q05397)
T2 construct: purchased Reaction Biology Europe
T2 sequence (Q05397 whole entry): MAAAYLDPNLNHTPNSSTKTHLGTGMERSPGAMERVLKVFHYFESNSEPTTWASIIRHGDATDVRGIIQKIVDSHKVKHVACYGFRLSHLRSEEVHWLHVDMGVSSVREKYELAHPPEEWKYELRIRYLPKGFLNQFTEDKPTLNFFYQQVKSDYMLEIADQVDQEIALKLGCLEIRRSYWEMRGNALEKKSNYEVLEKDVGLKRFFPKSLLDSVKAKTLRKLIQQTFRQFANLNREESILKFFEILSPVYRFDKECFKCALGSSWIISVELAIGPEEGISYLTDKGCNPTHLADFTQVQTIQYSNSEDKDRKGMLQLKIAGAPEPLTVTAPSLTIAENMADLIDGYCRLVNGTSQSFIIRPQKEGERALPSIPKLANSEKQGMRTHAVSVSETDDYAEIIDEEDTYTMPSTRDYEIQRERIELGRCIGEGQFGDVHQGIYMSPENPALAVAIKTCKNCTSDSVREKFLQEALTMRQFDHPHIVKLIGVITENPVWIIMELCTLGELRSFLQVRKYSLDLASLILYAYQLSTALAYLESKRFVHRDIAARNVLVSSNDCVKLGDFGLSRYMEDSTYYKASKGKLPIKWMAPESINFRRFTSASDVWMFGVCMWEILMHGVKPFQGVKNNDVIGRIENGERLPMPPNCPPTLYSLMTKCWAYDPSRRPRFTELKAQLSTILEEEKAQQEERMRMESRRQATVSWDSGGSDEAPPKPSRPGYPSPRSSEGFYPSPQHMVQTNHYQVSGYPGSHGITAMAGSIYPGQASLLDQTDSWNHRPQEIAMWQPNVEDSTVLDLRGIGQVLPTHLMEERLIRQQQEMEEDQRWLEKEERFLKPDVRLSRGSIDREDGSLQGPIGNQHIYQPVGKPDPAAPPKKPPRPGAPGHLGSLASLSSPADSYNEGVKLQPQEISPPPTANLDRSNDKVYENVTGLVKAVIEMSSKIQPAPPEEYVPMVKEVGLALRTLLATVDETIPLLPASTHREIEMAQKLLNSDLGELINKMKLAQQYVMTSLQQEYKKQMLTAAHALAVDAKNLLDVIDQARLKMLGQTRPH

[3] = molecular target: T3, 340 wild-type kinases (Homo sapiens, UniProt P08631)
T3 construct: purchased Reaction Biology Europe
T3 sequence (P08631 whole entry): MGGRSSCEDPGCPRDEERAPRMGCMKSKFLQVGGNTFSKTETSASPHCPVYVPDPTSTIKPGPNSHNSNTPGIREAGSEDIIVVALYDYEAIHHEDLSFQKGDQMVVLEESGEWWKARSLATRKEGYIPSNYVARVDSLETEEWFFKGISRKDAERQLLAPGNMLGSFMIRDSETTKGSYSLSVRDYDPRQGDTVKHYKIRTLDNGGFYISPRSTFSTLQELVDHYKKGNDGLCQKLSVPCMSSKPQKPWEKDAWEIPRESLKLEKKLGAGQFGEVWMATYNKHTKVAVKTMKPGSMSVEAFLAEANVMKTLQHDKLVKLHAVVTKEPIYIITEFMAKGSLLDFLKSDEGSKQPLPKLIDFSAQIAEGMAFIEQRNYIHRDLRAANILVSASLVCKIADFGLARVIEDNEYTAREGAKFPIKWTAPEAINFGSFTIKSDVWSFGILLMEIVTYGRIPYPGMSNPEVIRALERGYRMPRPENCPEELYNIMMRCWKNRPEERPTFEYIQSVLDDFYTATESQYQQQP

[4] = molecular target: T4, 340 wild-type kinases (Homo sapiens, UniProt Q15746)
T4 construct: purchased Reaction Biology Europe
T4 sequence (Q15746 whole entry): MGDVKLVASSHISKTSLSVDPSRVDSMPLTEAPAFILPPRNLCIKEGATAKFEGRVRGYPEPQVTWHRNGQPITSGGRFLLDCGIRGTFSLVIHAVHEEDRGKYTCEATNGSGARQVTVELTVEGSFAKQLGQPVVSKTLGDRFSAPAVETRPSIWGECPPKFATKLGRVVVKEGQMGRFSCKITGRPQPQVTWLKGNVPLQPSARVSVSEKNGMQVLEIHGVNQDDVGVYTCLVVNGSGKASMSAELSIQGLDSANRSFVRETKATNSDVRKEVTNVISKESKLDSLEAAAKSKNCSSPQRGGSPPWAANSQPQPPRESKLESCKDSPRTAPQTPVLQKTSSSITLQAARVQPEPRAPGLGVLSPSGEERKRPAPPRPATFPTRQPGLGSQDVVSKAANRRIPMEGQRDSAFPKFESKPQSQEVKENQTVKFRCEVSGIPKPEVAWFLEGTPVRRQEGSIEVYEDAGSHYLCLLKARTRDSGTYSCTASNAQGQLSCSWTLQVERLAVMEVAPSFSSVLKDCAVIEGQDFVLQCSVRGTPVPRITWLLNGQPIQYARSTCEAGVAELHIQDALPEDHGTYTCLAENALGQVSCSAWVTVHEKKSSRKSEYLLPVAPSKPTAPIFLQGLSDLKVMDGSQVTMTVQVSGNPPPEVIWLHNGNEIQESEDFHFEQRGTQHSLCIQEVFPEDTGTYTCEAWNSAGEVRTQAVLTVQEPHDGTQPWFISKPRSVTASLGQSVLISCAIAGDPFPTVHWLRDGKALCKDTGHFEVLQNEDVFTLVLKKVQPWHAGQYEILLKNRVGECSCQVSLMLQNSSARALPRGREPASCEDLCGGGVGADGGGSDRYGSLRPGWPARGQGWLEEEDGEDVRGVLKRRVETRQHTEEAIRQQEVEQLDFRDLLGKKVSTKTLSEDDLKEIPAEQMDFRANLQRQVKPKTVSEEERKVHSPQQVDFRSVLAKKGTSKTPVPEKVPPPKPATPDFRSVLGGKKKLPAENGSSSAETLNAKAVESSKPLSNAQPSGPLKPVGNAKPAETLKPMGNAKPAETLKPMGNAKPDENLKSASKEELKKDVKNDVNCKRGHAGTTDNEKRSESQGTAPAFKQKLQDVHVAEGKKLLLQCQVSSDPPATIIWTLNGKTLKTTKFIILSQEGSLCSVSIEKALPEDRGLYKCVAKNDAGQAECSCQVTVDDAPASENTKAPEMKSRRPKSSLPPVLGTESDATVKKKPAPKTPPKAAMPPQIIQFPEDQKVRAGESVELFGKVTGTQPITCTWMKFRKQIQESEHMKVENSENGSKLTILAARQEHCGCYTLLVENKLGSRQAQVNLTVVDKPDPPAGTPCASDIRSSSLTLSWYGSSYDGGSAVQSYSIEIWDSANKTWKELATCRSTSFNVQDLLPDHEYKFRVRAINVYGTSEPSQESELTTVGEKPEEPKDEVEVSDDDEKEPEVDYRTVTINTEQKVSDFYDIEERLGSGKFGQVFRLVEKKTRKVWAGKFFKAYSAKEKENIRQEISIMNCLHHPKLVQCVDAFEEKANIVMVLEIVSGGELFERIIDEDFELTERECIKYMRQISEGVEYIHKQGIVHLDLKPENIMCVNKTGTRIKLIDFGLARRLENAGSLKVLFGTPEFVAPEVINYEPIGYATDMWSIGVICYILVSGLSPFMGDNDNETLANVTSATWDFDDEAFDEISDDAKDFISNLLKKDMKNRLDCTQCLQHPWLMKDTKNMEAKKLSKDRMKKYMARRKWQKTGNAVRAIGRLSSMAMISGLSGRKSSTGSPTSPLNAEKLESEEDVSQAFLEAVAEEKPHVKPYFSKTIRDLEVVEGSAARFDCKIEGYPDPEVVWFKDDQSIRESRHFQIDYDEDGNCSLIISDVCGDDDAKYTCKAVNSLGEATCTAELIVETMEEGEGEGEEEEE

[5] = molecular target: T5, 340 wild-type kinases (Homo sapiens, UniProt Q8IW41)
T5 construct: purchased Reaction Biology Europe
T5 sequence (Q8IW41 1-473): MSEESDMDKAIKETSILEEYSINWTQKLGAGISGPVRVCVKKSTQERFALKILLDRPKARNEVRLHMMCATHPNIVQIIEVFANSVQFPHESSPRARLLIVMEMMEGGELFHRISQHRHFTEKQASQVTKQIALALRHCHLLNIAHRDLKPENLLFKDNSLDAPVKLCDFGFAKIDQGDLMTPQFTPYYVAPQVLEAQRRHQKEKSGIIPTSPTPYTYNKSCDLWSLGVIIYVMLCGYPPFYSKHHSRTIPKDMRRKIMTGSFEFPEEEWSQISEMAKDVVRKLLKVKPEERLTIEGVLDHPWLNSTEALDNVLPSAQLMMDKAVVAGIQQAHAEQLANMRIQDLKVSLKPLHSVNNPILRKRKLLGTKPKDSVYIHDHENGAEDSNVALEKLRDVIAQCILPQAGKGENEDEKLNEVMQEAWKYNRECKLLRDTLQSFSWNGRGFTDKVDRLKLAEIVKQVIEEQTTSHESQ

[6] = molecular target: T6, 340 wild-type kinases (Homo sapiens, UniProt P52333)
T6 construct: purchased Reaction Biology Europe
T6 sequence (P52333 1-1124): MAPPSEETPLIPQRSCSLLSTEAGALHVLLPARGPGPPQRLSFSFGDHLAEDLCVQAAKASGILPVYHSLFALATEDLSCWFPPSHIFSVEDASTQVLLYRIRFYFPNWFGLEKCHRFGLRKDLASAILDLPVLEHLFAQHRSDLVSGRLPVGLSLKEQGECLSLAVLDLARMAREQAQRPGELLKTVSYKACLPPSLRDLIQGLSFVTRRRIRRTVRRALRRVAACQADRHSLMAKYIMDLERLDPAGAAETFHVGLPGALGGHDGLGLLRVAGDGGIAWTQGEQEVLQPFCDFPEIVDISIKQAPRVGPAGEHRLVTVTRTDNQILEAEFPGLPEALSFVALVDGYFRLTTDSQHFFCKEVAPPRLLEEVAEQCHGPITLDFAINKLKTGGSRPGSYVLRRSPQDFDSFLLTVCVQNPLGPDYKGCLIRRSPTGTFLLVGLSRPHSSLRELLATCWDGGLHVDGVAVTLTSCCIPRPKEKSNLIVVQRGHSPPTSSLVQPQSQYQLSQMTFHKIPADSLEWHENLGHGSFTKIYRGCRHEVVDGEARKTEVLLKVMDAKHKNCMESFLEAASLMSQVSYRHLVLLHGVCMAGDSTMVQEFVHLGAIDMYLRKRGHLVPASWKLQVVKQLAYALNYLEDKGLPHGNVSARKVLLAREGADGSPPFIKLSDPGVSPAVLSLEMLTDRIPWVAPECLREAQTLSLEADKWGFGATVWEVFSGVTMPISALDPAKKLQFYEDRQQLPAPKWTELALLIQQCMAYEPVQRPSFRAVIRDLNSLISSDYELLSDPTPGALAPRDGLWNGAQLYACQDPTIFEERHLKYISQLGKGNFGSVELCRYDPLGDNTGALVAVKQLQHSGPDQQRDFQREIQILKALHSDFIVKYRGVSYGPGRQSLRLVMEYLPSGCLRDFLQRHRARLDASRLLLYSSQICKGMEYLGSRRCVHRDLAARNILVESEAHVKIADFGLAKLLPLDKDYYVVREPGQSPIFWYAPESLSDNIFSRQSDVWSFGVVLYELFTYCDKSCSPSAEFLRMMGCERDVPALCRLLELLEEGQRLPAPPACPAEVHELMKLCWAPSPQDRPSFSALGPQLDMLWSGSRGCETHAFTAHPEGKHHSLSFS

Structure (SMILES): CNC(=O)c1ccc2c(c1)C(=O)c1ccc(Nc3ccc(F)c(NC(=O)C4CC4)c3)cc1CC2 [Compound 2015]
- remaining activity at 0.2 µM ([1]; 0.2 µM 2015, read-out: ACVRL1 residual activity): 100%
- remaining activity at 1 µM ([1]; 1 µM 2015, read-out: ACVRL1 residual activity): 102%
- remaining activity at 0.2 µM ([1]; ACVRL1, 0.2 µM, read-out: residual activity): 100%
- remaining activity at 1 µM ([1]; ACVRL1, 1 µM, read-out: residual activity): 102%
- remaining activity at 0.2 µM ([2]; 0.2 µM 2015, read-out: FAK residual activity): 121%
- remaining activity at 1 µM ([2]; 1 µM 2015, read-out: FAK residual activity): 115%
- remaining activity at 0.2 µM ([2]; FAK, 0.2 µM, read-out: residual activity): 121%
- remaining activity at 1 µM ([2]; FAK, 1 µM, read-out: residual activity): 115%
- remaining activity at 0.2 µM ([3]; 0.2 µM 2015, read-out: HCK residual activity): 124%
- remaining activity at 1 µM ([3]; 1 µM 2015, read-out: HCK residual activity): 109%
- remaining activity at 0.2 µM ([3]; HCK, 0.2 µM, read-out: residual activity): 124%
- remaining activity at 1 µM ([3]; HCK, 1 µM, read-out: residual activity): 109%
- remaining activity at 0.2 µM ([4]; 0.2 µM 2015, read-out: MYLK residual activity): 109%
- remaining activity at 1 µM ([4]; 1 µM 2015, read-out: MYLK residual activity): 97.7%
- remaining activity at 0.2 µM ([4]; MYLK, 0.2 µM, read-out: residual activity): 109%
- remaining activity at 1 µM ([4]; MYLK, 1 µM, read-out: residual activity): 97.7%
- remaining activity at 0.2 µM ([5]; 0.2 µM 2015, read-out: MAPKAPK5 residual activity): 123%
- remaining activity at 1 µM ([5]; 1 µM 2015, read-out: MAPKAPK5 residual activity): 109%
- remaining activity at 0.2 µM ([5]; MAPKAPK5, 0.2 µM, read-out: residual activity): 123%
- remaining activity at 1 µM ([5]; MAPKAPK5, 1 µM, read-out: residual activity): 109%
- remaining activity at 0.2 µM ([6]; 0.2 µM 2015, read-out: JAK3 residual activity): 105%
- remaining activity at 1 µM ([6]; 1 µM 2015, read-out: JAK3 residual activity): 110%
- remaining activity at 0.2 µM ([6]; JAK3, 0.2 µM, read-out: residual activity): 105%
- remaining activity at 1 µM ([6]; JAK3, 1 µM, read-out: residual activity): 110%
